{"source": "ChEMBL document CHEMBL4382254", "about": "“Design, synthesis, structure-activity relationships and mechanism of action of new quinoline derivatives as potential antitumor agents” (Eur J Med Chem, 2019)", "key": {"[1]": {"system": "HCT-116", "assay": "Induction of apoptosis in human HCT116 cells assessed as necrotic cells at 2.5 uM after 24 hrs by Annexin V-FITC/propidium iodide staining based flow cytometry (reference value: 3.46%)", "type": "functional"}, "[2]": {"system": "FHC", "assay": "Cytotoxicity against human FHC cells assessed as reduction in cell viability at 5 uM incubated for 24 hrs by CCK8 assay", "type": "cell-based"}, "[3]": {"system": "HCT-116", "assay": "Induction of apoptosis in Bax-deficient human HCT116 cells assessed as viable cells at 5 uM after 24 hrs by Annexin V-FITC/propidium iodide staining based flow cytometry (reference value: 70.58%)", "type": "functional", "conditions": "HCT-116, 24 h, read-out: Activity"}, "[4]": {"system": "DLD-1", "assay": "Induction of morphological changes in human DLD1 cells assessed as cell shrinkage at 5 to 10 uM after 24 hrs by phase contrast microscopic analysis", "type": "functional, cell-based"}, "[5]": {"system": "HCT-116", "assay": "Inhibition of colony formation in human HCT116 cells after 24 hrs by crystal violet staining based assay", "type": "functional, cell-based"}, "[6]": {"system": "HCT-116", "assay": "Induction of apoptosis in human HCT116 cells assessed as late apoptotic cells at 2.5 to 5 uM after 24 hrs in presence of pan-caspase inhibitor z-VAD-FMK by Annexin V-FITC/propidium iodide staining based flow cytometry (reference value: 7.29%)", "type": "functional"}, "[7]": {"system": "HCT-116", "assay": "Induction of apoptosis in Bax-deficient human HCT116 cells assessed as necrotic cells at 5 uM after 24 hrs by Annexin V-FITC/propidium iodide staining based flow cytometry (reference value: 6.74%)", "type": "functional"}, "[8]": {"system": "RKO", "assay": "Induction of morphological changes in human RKO cells assessed as cell shrinkage at 5 to 10 uM after 24 hrs by phase contrast microscopic analysis", "type": "functional, cell-based"}, "[9]": {"molecular_target": "Cellular tumor antigen p53 (Homo sapiens) (UniProt P04637)", "sequence (P04637 whole entry, looked up)": "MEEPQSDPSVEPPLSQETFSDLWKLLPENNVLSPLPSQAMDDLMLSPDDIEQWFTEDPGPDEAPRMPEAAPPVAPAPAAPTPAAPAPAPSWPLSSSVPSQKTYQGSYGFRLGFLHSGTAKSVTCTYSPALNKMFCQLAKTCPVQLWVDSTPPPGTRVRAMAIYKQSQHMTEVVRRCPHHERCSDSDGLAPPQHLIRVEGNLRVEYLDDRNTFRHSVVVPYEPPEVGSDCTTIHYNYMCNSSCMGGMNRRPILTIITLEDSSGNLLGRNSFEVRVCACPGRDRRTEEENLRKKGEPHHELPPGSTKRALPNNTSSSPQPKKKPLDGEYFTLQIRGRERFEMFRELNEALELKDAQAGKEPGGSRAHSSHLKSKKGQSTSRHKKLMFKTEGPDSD", "assay": "Activation of P53 in human HCT116 cells assessed as increase in Bax expression at 2.5 to 20 uM after 24 hrs by immunoblot analysis", "type": "cell-based"}, "[10]": {"system": "HCT-116", "assay": "Induction of apoptosis in human HCT116 cells assessed as increase in early apoptotic cells after 24 hrs by Annexin V-FITC/propidium iodide staining based flow cytometry", "type": "functional, cell-based"}, "[11]": {"molecular_target": "Cellular tumor antigen p53 (Homo sapiens) (UniProt P04637)", "assay": "Induction of P53 translocation to nucleus in human HCT116 cells measured after 15 to 90 mins by immunoblot analysis", "type": "cell-based"}, "[12]": {"system": "BGC-823", "assay": "Cytotoxicity against human BGC823 cells after 48 hrs by MTT assay", "type": "functional, cell-based", "conditions": "BGC-823, 48 h"}, "[13]": {"system": "HCT-116", "assay": "Cell cycle arrest in human HCT116 cells assessed as accumulation at S phase at 5 uM after 48 hrs by propidium iodide staining based flow cytometry (reference value: 6.79%)", "type": "functional"}, "[14]": {"system": "HCT-116", "assay": "Anticancer activity against human HCT116 cells xenografted in […] mouse assessed as tumor growth inhibition at 80 mg/kg administered once every 3 days for 21 days", "type": "functional, organism-based"}, "[15]": {"system": "FHC", "assay": "Cytotoxicity against human FHC cells assessed as reduction in cell viability at 10 to 20 uM incubated for 24 hrs by CCK8 assay", "type": "cell-based"}, "[16]": {"system": "HCT-116", "assay": "Induction of apoptosis in P53-deficient human HCT116 cells assessed as late apoptotic cells at 5 uM after 24 hrs by Annexin V-FITC/propidium iodide staining based flow cytometry (reference value: 34.09%)", "type": "functional"}, "[17]": {"system": "HCT-116", "assay": "Induction of apoptosis in P53-deficient human HCT116 cells assessed as early apoptotic cells at 5 uM after 24 hrs by Annexin V-FITC/propidium iodide staining based flow cytometry (reference value: 5.96%)", "type": "functional"}, "[18]": {"system": "HCT-116", "assay": "Induction of autophagy in human HCT116 cells expressing GFP-LC3 assessed as increase in LC3 puncta formation at 10 uM after 24 hrs by fluorescence microscopic analysis", "type": "functional, cell-based"}, "[19]": {"system": "HCT-116", "assay": "Induction of apoptosis in human HCT116 cells assessed as decrease in pro-caspase9 level at 2.5 to 10 uM after 24 hrs by immunoblot analysis", "type": "functional, cell-based"}, "[20]": {"assay": "Solubility of the compound in water", "type": "physicochemical"}, "[21]": {"system": "RKO", "assay": "Cytotoxicity against human RKO cells after 48 hrs by MTT assay", "type": "functional, cell-based"}, "[22]": {"system": "SK-OV-3", "assay": "Cytotoxicity against human SKOV3 cells after 48 hrs by MTT assay", "type": "functional, cell-based", "conditions": "SK-OV-3, 48 h"}, "[23]": {"system": "HCT-116", "assay": "Induction of apoptosis in human HCT116 cells assessed as necrotic cells at 2.5 to 5 uM after 24 hrs in presence of pan-caspase inhibitor z-VAD-FMK by Annexin V-FITC/propidium iodide staining based flow cytometry (reference value: 1.83%)", "type": "functional"}, "[24]": {"system": "HCT-116", "assay": "Cell cycle arrest in human HCT116 cells assessed as accumulation at G2/M phase at 5 uM after 48 hrs by propidium iodide staining based flow cytometry (reference value: 11.24%)", "type": "functional"}, "[25]": {"system": "HepG2", "assay": "Cytotoxicity against human HepG2 cells after 48 hrs by MTT assay", "type": "functional, cell-based", "conditions": "HepG2, 48 h"}, "[26]": {"system": "HCT-116", "assay": "Induction of morphological changes in human HCT116 cells assessed as reduction in cell number at 5 to 10 uM after 24 hrs by phase contrast microscopic analysis", "type": "functional, cell-based"}, "[27]": {"system": "HCT-116", "assay": "Cytotoxicity against human HCT116 cells after 48 hrs by MTT assay", "type": "functional, cell-based", "conditions": "HCT-116, 48 h"}, "[28]": {"system": "HCT-116", "assay": "Induction of apoptosis in P53-deficient human HCT116 cells assessed as necrotic cells at 5 uM after 24 hrs by Annexin V-FITC/propidium iodide staining based flow cytometry (reference value: 4.45%)", "type": "functional"}, "[29]": {"system": "HCT-116", "assay": "Induction of apoptosis in human HCT116 cells assessed as late apoptotic cells at 5 uM after 24 hrs by Annexin V-FITC/propidium iodide staining based flow cytometry (reference value: 6.08 to 11.92%)", "type": "functional"}, "[30]": {"system": "HCT-116", "assay": "Induction of apoptosis in human HCT116 cells assessed as increase in late apoptotic cells after 24 hrs by Annexin V-FITC/propidium iodide staining based flow cytometry", "type": "functional, cell-based"}, "[31]": {"molecular_target": "Cellular tumor antigen p53 (Homo sapiens) (UniProt P04637)", "assay": "Activation of P53 in human HCT116 cells assessed as decrease in PARP expression at 2.5 to 20 uM after 24 hrs by immunoblot analysis", "type": "cell-based"}, "[32]": {"system": "HCT-116", "assay": "Induction of apoptosis in human HCT116 cells assessed as viable cells at 5 uM after 24 hrs by Annexin V-FITC/propidium iodide staining based flow cytometry (reference value: 73.26 to 87.19%)", "type": "functional", "conditions": "HCT-116, 24 h, read-out: Activity"}, "[33]": {"system": "DLD-1", "assay": "Inhibition of colony formation in human DLD1 cells after 24 hrs by crystal violet staining based assay", "type": "functional, cell-based"}, "[34]": {"system": "HCT-116", "assay": "Induction of apoptosis in human HCT116 cells assessed as necrotic cells at 5 uM after 24 hrs by Annexin V-FITC/propidium iodide staining based flow cytometry (reference value: 3.46 to 9.31%)", "type": "functional"}, "[35]": {"system": "HCT-116", "assay": "Induction of apoptosis in P53-deficient human HCT116 cells assessed as decrease in PARP expression at 2.5 to 20 uM after 24 hrs by immunoblot analysis", "type": "functional, cell-based"}, "[36]": {"system": "HCT-116", "assay": "Induction of apoptosis in P53-deficient human HCT116 cells assessed as increase in p21 expression at 2.5 to 20 uM after 24 hrs by immunoblot analysis", "type": "functional, cell-based"}, "[37]": {"system": "HCT-116", "assay": "Induction of apoptosis in human HCT116 cells assessed as decrease in pro-caspase3 level at 2.5 to 10 uM after 24 hrs by immunoblot analysis", "type": "functional, cell-based"}, "[38]": {"system": "HCT-116", "assay": "Induction of apoptosis in P53-deficient human HCT116 cells assessed as viable cells at 5 uM after 24 hrs by Annexin V-FITC/propidium iodide staining based flow cytometry (reference value: 75.5%)", "type": "functional", "conditions": "HCT-116, 24 h, read-out: Activity"}}, "note": "Calls of active or inactive are those of the source. The calls are words filed in the database; no cut-off is given here."}
{"molecule": "CN(C)CCNc1ccnc2cc(OCc3ccc(F)cc3)ccc12", "values": [{"measurement": "Activity", "setting": "[1]", "value": 6.64, "unit": "%"}, {"measurement": "Activity", "setting": "[2]", "value": "Non-Toxic"}, {"measurement": "viability at 5 µM", "setting": "[3]", "value": 77.3, "unit": "%"}, {"measurement": "Activity", "setting": "[4]", "value": "Active"}, {"measurement": "inhibition", "setting": "[5]", "value": "Dose-dependent effect"}, {"measurement": "Activity", "setting": "[6]", "value": 10.05, "unit": "%"}, {"measurement": "Activity", "setting": "[7]", "value": 1.24, "unit": "%"}, {"measurement": "Activity", "setting": "[8]", "value": "Active"}, {"measurement": "Activity", "setting": "[9]", "value": "Active"}, {"measurement": "Activity", "setting": "[10]", "value": "Dose-dependent effect"}, {"measurement": "Activity", "setting": "[11]", "value": "Active"}, {"measurement": "IC50", "setting": "[12]", "value": 890, "unit": "nM"}, {"measurement": "Activity", "setting": "[13]", "value": 7.61, "unit": "%"}, {"measurement": "TGI", "setting": "[14]", "value": "Active"}, {"measurement": "Activity", "setting": "[15]", "value": "Toxic"}, {"measurement": "Activity", "setting": "[16]", "value": 14.05, "unit": "%"}, {"measurement": "Activity", "setting": "[17]", "value": 5.29, "unit": "%"}, {"measurement": "Activity", "setting": "[18]", "value": "inactive"}, {"measurement": "Activity", "setting": "[19]", "value": "Active"}, {"measurement": "solubility", "setting": "[20]", "value": "> 10000", "unit": "µg/mL"}, {"measurement": "IC50", "setting": "[21]", "value": 580, "unit": "nM"}, {"measurement": "IC50", "setting": "[22]", "value": 890, "unit": "nM"}, {"measurement": "Activity", "setting": "[23]", "value": 2.65, "unit": "%"}, {"measurement": "Activity", "setting": "[24]", "value": 8.88, "unit": "%"}, {"measurement": "IC50", "setting": "[25]", "value": 790, "unit": "nM"}, {"measurement": "Activity", "setting": "[26]", "value": "Active"}, {"measurement": "IC50", "setting": "[27]", "value": 370, "unit": "nM"}, {"measurement": "Activity", "setting": "[28]", "value": 4.45, "unit": "%"}, {"measurement": "Activity", "setting": "[29]", "value": "17.49 - 17.54%"}, {"measurement": "Activity", "setting": "[30]", "value": "Dose-dependent effect"}, {"measurement": "Activity", "setting": "[31]", "value": "Active"}, {"measurement": "viability at 5 µM", "setting": "[32]", "value": "52.5 to 69.1", "unit": "%"}, {"measurement": "inhibition", "setting": "[33]", "value": "Dose-dependent effect"}, {"measurement": "Activity", "setting": "[34]", "value": "9.3 - 10.45%"}, {"measurement": "Activity", "setting": "[35]", "value": "inactive"}, {"measurement": "Activity", "setting": "[36]", "value": "inactive"}, {"measurement": "Activity", "setting": "[37]", "value": "Active"}, {"measurement": "viability at 5 µM", "setting": "[38]", "value": 76.3, "unit": "%"}]}
